Measured values: patent US11427558B1, “Indazoles and azaindazoles as LRRK2 inhibitors” (ESCAPE Bio, Inc., priority 2019, dated 2022)

What was measured:
[1] = target: Recombinant G2019S-LRRK2 protein (Homo sapiens (Human), UniProt Q5S007, G2019S); assay: LRRK2 kinase activity, LanthaScreen TR-FRET assay (G2019S); type: biochemical; conditions: LRRKtide 400 nM, 25 μM ATP, 60 min
Description: (§1) LRRK2 kinase activity was measured using a LanthaScreen™ Kinase Activity Assay from ThermoFisher Scientific. Recombinant wild type or G2019S-LRRK2 protein (Life Technologies, PR8604B or PV4881, respectively), was incubated with a fluorescein-labeled peptide substrate called LRRKtide that is based upon ezrin/radixin/moesin (ERM) (Life Technologies, PV4901) in the presence of ATP and serially diluted compound. […] Compound-dependent inhibition of the TR-FRET signal was used to generate a concentration-response curve for IC50 determination.
(§2) After 60 min incubation at room temperature, the reaction was stopped by addition of 10 μL of 2× stop solution containing a final concentration of 2 nM anti-pERM antibody and 10 mM EDTA. […] The ratio of the 520 nm and 495 nm emission was used to analyze the data.

[2] = target: Recombinant wild type LRRK2 protein (Homo sapiens (Human), UniProt Q5S007); assay: LRRK2 kinase activity, LanthaScreen TR-FRET assay (wild type); type: biochemical; conditions: LRRKtide 400 nM, 25 μM ATP, 60 min; read-out: LRRK2 WT IC50
Chain of Recombinant wild type LRRK2 protein (Q5S007 whole entry): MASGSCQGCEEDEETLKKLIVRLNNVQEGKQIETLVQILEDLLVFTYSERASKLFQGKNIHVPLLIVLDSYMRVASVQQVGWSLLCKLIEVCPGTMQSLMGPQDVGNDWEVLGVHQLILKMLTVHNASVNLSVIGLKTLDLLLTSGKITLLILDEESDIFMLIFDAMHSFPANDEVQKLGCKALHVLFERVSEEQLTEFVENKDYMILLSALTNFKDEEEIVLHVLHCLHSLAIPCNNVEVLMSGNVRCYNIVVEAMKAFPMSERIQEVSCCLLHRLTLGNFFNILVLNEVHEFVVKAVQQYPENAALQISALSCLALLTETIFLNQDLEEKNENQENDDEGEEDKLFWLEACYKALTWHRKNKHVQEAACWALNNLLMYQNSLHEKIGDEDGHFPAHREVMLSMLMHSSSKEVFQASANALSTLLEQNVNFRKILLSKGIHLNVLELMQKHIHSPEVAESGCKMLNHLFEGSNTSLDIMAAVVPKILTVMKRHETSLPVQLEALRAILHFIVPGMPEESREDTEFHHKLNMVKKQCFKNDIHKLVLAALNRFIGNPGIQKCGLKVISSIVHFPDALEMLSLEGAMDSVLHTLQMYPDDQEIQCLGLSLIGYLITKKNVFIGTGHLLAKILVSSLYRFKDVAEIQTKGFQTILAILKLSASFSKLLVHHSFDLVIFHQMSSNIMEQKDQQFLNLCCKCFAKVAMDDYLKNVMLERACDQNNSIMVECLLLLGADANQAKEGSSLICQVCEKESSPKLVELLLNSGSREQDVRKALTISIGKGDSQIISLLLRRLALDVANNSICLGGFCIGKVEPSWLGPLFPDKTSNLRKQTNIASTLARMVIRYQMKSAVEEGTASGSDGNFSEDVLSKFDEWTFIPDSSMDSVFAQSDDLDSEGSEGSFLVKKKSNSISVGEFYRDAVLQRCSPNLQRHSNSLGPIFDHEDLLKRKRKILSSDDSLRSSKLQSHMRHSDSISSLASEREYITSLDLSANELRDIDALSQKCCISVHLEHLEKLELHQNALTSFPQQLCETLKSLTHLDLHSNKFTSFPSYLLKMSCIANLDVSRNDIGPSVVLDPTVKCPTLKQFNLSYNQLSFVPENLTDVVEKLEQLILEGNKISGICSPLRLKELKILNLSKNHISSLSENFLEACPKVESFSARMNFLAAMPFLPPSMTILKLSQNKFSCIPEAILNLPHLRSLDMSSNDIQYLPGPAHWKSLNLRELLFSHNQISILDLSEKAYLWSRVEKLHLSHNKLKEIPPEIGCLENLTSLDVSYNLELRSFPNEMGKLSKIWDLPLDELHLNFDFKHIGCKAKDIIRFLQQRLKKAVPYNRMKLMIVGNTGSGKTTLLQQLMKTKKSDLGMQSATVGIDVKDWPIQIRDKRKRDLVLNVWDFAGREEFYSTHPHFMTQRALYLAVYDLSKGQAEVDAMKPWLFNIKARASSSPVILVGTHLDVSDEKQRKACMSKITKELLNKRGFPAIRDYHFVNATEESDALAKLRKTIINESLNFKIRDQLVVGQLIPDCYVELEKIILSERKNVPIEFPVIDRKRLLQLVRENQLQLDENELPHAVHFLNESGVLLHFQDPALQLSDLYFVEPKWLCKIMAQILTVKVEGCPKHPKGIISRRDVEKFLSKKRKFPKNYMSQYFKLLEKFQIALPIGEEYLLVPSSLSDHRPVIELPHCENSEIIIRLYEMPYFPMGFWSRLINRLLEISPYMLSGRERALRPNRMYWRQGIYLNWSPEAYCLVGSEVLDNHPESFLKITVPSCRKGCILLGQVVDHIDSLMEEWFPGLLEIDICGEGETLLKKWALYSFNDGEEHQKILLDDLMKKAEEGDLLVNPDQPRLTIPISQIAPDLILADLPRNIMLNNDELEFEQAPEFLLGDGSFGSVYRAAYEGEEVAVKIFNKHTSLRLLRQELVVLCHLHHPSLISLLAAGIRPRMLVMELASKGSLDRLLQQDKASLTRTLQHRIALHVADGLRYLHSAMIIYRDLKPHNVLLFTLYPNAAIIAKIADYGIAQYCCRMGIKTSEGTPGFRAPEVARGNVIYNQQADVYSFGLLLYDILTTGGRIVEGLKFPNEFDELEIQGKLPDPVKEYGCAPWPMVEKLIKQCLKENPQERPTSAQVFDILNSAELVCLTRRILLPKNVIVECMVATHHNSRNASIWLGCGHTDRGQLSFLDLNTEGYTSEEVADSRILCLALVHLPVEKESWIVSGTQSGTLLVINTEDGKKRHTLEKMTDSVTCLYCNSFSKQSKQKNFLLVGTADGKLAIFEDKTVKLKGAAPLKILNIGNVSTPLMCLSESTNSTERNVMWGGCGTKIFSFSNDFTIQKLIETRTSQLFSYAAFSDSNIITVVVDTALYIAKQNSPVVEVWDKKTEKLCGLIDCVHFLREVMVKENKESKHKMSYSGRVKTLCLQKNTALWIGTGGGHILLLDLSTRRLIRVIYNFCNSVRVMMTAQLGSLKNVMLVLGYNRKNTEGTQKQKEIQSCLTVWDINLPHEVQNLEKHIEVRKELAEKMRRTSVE
Description: as §1, §2

Chain of Recombinant G2019S-LRRK2 protein (Q5S007 whole entry G2019S): as the sequence (Q5S007 whole entry) above, with G2019S counted along it

| Compound | IC50 [1] | IC50 [2] |
| --- | --- | --- |
| Cc1cc(-c2n[nH]c3ccc(NC(=O)c4ncc(C#N)cc4C)cc23)ccn1 [Example 74, 5-Cyano-3-methyl-N-(3-(2-methylpyridin-4-yl)-1H-indazol-5-yl)picolinamide] | < 100 nM | < 100 nM |
| CCc1c(C#N)cccc1C(=O)Nc1ccc2[nH]nc(-c3ccoc3)c2c1 [Example 75, 3-Cyano-2-ethyl-N-(3-(furan-3-yl)-1H-indazol-5-yl)benzamide] | < 100 nM | < 100 nM |
| Cc1cc(C#N)cnc1C(=O)Nc1ccc2[nH]nc(-c3coc(C#N)c3)c2c1 [Example 76, 5-Cyano-N-(3-(5-cyanofuran-3-yl)-1H-indazol-5-yl)-3-methylpicolinamide] | < 100 nM | < 100 nM |
| N#Cc1cccc(C(=O)Nc2ccc3[nH]nc(-c4ccoc4)c3c2)c1F [Example 77, 3-Cyano-2-fluoro-N-(3-(furan-3-yl)-1H-indazol-5-yl)benzamide] | < 100 nM | < 100 nM |
| Cc1cc(C#N)cc(C(=O)Nc2ccc3[nH]nc(-c4ccoc4)c3c2)n1 [Example 78, 4-Cyano-N-(3-(furan-3-yl)-1H-indazol-5-yl)-6-methylpicolinamide] | < 100 nM | 100 to 1000 nM |
| N#Cc1ccnc(C(=O)Nc2ccc3[nH]nc(-c4ccoc4)c3c2)c1F [Example 79, 4-Cyano-3-fluoro-N-(3-(furan-3-yl)-1H-indazol-5-yl)picolinamide] | 100 to 1000 nM | 100 to 1000 nM |
| Cc1cc(C#N)cnc1C(=O)Nc1cc(C)c2[nH]nc(-c3ccoc3)c2c1 [Example 80, 5-Cyano-N-(3-(furan-3-yl)-7-methyl-1H-indazol-5-yl)-3-methylpicolinamide] | 100 to 1000 nM | 1000 to 10000 nM |
| Cc1nn(C)c(C#N)c1C(=O)Nc1ccc2[nH]nc(-c3ccoc3)c2c1 [Example 81, 5-Cyano-N-(3-(furan-3-yl)-1H-indazol-5-yl)-1,3-dimethyl-1H-pyrazole-4-carboxamide] | < 100 nM | < 100 nM |
| N#Cc1cc(C(=O)Nc2ccc3[nH]nc(-c4ccoc4)c3c2)no1 [Example 82, 5-Cyano-N-(3-(furan-3-yl)-1H-indazol-5-yl)isoxazole-3-carboxamide] | < 100 nM | < 100 nM |
| CCc1cc(C#N)cnc1C(=O)Nc1ccc2[nH]nc(-c3ccoc3)c2c1 [Example 83, 5-Cyano-3-ethyl-N-(3-(furan-3-yl)-1H-indazol-5-yl)picolinamide] | < 100 nM | 100 to 1000 nM |
| C=Cc1cc(C#N)cnc1C(=O)Nc1ccc2[nH]nc(-c3ccoc3)c2c1 [Example 84, 5-Cyano-N-(3-(furan-3-yl)-1H-indazol-5-yl)-3-vinylpicolinamide] | < 100 nM | 100 to 1000 nM |
| Cc1cc(C(=O)Nc2ccc3[nH]nc(-c4ccoc4)c3c2)nc(C)c1C#N [Example 85, 5-cyano-N-(3-(furan-3-yl)-1H-indazol-5-yl)-4,6-dimethylpicolinamide] | < 100 nM | 1000 to 10000 nM |
| N#Cc1cccc(C(=O)Nc2ccc3[nH]nc(-c4ccoc4)c3c2)c1Cl [Example 86, 2-chloro-3-cyano-N-(3-(furan-3-yl)-1H-indazol-5-yl)benzamide] | < 100 nM | < 100 nM |
| Cc1cc(C#N)cnc1C(=O)Nc1ccc2[nH]nc(I)c2c1 [Example 87, 5-cyano-N-(3-iodo-1H-indazol-5-yl)-3-methylpicolinamide] | < 100 nM | 100 to 1000 nM |
| Cc1c(C#N)cccc1C(=O)Nc1cc(C)c2[nH]nc(-c3ccoc3)c2c1 [Example 88, 3-cyano-N-(3-(furan-3-yl)-7-methyl-1H-indazol-5-yl)-2-methylbenzamide] | 100 to 1000 nM | 1000 to 10000 nM |
| N#Cc1cccc(C(=O)Nc2ccc3[nH]nc(-c4ccoc4)c3c2)c1Br [Example 89, 2-bromo-3-cyano-N-(3-(furan-3-yl)-1H-indazol-5-yl)benzamide] | < 100 nM | < 100 nM |
| Cc1c(C(=O)Nc2ccc3[nH]nc(-c4ccoc4)c3c2)c(C#N)nn1C [Example 90, 3-Cyano-N-(3-(furan-3-yl)-1H-indazol-5-yl)-1,5-dimethyl-1H-pyrazole-4-carboxamide] | < 100 nM | < 100 nM |
| N#Cc1cc(C(=O)Nc2ccc3[nH]nc(-c4ccoc4)c3c2)ns1 [Example 91, 5-Cyano-N-(3-(furan-3-yl)-1H-indazol-5-yl)isothiazole-3-carboxamide] | < 100 nM | < 100 nM |
| Cc1c(C#N)nn(C)c1C(=O)Nc1ccc2[nH]nc(-c3ccoc3)c2c1 [Example 92, 3-Cyano-N-(3-(furan-3-yl)-1H-indazol-5-yl)-1,4-dimethyl-1H-pyrazole-5-carboxamide] | < 100 nM | 100 to 1000 nM |

| Compound | IC50 [1] | IC50 [2] |
| --- | --- | --- |
| Cc1c(C(=O)Nc2ccc3[nH]nc(-c4ccoc4)c3c2)nn(C)c1C#N [Example 93, 5-Cyano-N-(3-(furan-3-yl)-1H-indazol-5-yl)-1,4-dimethyl-1H-pyrazole-3-carboxamide] | 100 to 1000 nM | 100 to 1000 nM |
| Cc1cc(C(=O)Nc2ccc3[nH]nc(-c4ccoc4)c3c2)ncc1C#N [Example 94, 5-Cyano-N-(3-(furan-3-yl)-1H-indazol-5-yl)-4-methylpicolinamide] | < 100 nM | 100 to 1000 nM |
| N#Cc1cnc(C(=O)Nc2ccc3[nH]nc(-c4ccoc4)c3c2)c(Cl)c1 [Example 95, 3-chloro-5-cyano-N-(3-(furan-3-yl)-1H-indazol-5-yl)picolinamide] | < 100 nM | < 100 nM |
| Cn1c(C#N)cnc1C(=O)Nc1ccc2[nH]nc(-c3ccoc3)c2c1 [Example 96, 5-Cyano-N-(3-(furan-3-yl)-1H-indazol-5-yl)-1-methyl-1H-imidazole-2-carboxamide] | 100 to 1000 nM | 100 to 1000 nM |
| Cn1nc(C(=O)Nc2ccc3[nH]nc(-c4ccoc4)c3c2)cc1C#N [Example 97, 5-Cyano-N-(3-(furan-3-yl)-1H-indazol-5-yl)-1-methyl-1H-pyrazole-3-carboxamide] | < 100 nM | 100 to 1000 nM |
| Cc1ccccc1-c1n[nH]c2ccc(NC(=O)c3ncc(C#N)cc3C)cc12 [Example 98, 5-Cyano-3-methyl-N-(3-(o-tolyl)-1H-indazol-5-yl)picolinamide] | 1000 to 10000 nM | > 10000 nM |
| COc1ccccc1-c1n[nH]c2ccc(NC(=O)c3ncc(C#N)cc3C)cc12 [Example 99, 5-Cyano-N-(3-(2-methoxyphenyl)-1H-indazol-5-yl)-3-methylpicolinamide] | 100 to 1000 nM | 1000 to 10000 nM |
| Cc1cc(C#N)cnc1C(=O)Nc1ccc2[nH]nc(-c3ccoc3)c2n1 [Example 100, 5-Cyano-N-(3-(furan-3-yl)-1H-pyrazolo[4,3-b]pyridin-5-yl)-3-methylpicolinamide] | < 100 nM | < 100 nM |
| Cc1cc(C#N)cnc1C(=O)Nc1ccc2[nH]nc(-c3ccno3)c2c1 [Example 101, 5-Cyano-N-(3-(isoxazol-5-yl)-1H-indazol-5-yl)-3-methylpicolinamide] | < 100 nM | 100 to 1000 nM |
| Cc1cc(C#N)cnc1C(=O)Nc1ccc2[nH]nc(-c3ccc(CN4CCOCC4)s3)c2c1 [Example 102, 5-Cyano-3-methyl-N-(3-(5-(morpholinomethyl)thiophen-2-yl)-1H-indazol-5-yl)picolinamide] | < 100 nM | 100 to 1000 nM |
| Cc1cc(C#N)cnc1C(=O)Nc1ccc2[nH]nc(-c3ccnc(Br)c3)c2c1 [Example 103, N-(3-(2-Bromopyridin-4-yl)-1H-indazol-5-yl)-5-cyano-3-methylpicolinamide] | < 100 nM | < 100 nM |
| Cc1c(C(=O)Nc2ccc3[nH]nc(-c4ccccc4)c3c2)nc(C#N)n1C [Example 104, 2-Cyano-1,5-dimethyl-N-(3-phenyl-1H-indazol-5-yl)-1H-imidazole-4-carboxamide] | 100 to 1000 nM | 100 to 1000 nM |
| Cc1cc(C#N)cnc1C(=O)Nc1ccc2[nH]nc(Br)c2c1 [Example 106, N-(3-Bromo-1H-indazol-5-yl)-5-cyano-3-methylpicolinamide] | < 100 nM | 1000 to 10000 nM |
| N#Cc1ccc(C(=O)Nc2ccc3[nH]nc(-c4ccoc4)c3c2)c(O)c1 [Example 107, 4-Cyano-N-(3-(furan-3-yl)-1H-indazol-5-yl)-2-hydroxybenzamide] | 100 to 1000 nM | 100 to 1000 nM |
| Cc1cc(C#N)cnc1C(=O)Nc1ccc2[nH]nc(-c3ccc(C(=O)N4CCOCC4)cc3)c2c1 [Example 108, 5-Cyano-3-methyl-N-(3-(4-(morpholine-4-carbonyl)phenyl)-1H-indazol-5-yl)picolinamide] | < 100 nM | 100 to 1000 nM |
| Cc1cc(C#N)cnc1C(=O)Nc1ccc2[nH]nc(-c3cncc(OC(C)C)c3)c2c1 [Example 109, 5-Cyano-N-(3-(5-isopropoxypyridin-3-yl)-1H-indazol-5-yl)-3-methylpicolinamide] | < 100 nM | 100 to 1000 nM |
| Cc1cc(C#N)cnc1C(=O)Nc1ccc2[nH]nc(-c3cncs3)c2c1 [Example 110, 5-Cyano-3-methyl-N-(3-(thiazol-5-yl)-1H-indazol-5-yl)picolinamide] | < 100 nM | 100 to 1000 nM |
| Cc1cc(C#N)cnc1C(=O)Nc1ccc2[nH]nc(-c3cnco3)c2c1 [Example 111, 5-Cyano-3-methyl-N-(3-(oxazol-5-yl)-1H-indazol-5-yl)picolinamide] | < 100 nM | 100 to 1000 nM |
| Cc1cccc(-c2n[nH]c3ccc(NC(=O)c4ncc(C#N)cc4C)cc23)n1 [Example 112, 5-Cyano-3-methyl-N-(3-(6-methylpyridin-2-yl)-1H-indazol-5-yl)picolinamide] | 100 to 1000 nM | 100 to 1000 nM |
